Source: patent publication US12145948B2, “Compounds and methods for modulating HER2” (IAMBIC THERAPEUTICS, INC., priority 2022, dated 2024)

Key:
[1] = molecular target: T1, ERBB2-A775_G776insYVMA (ERBB2YVMA) (Homo sapiens, UniProt P04626, INS775YVMA); assay: HotSpot radiometric kinase activity assay, ERBB2YVMA; conditions: biochemical activity, read-out: HER2-YVMA IC50
T1 construct: purchased SignalChem E27-13BG
Protocol: The purpose of the wtERBB2, ERBB2-A775_G776insYVMA (ERBB2YVMA), wtEGFR biochemical assay was to evaluate the inhibition (% inhibition and IC50 values) of the small molecule inhibitors by using the “HotSpot” radiometric kinase activity assay. HotSpot assays monitor the […] of kinase substrate by the radioactive gamma phosphate of adenosine triphosphate (33P-ATP) during biochemical reactions. HotSpot assays was performed in steps upon completion of the kinase reaction: deposition of a reaction mixture aliquot onto P81 ion exchange paper, extensive washing of the aforementioned P81 paper using phosphoric acid to remove unbound radiolabeled 33P-ATP from the P81 paper, and finally visualization and quantification of the dried P81 paper utilizing a phosphoimager. […] Typical reaction solutions (10 μL final reaction volume) contained the following buffer conditions: 20 mM Hepes (pH 7.5), 10 mM MgCl2, 1 mM EGTA, 0.01% Brij35, 0.02 mg/mL BSA, 0.1 mM Na3VO4, 2 mM DTT, 1% DMSO. The assay was primed by preparing a fresh 0.2 mg/mL solution of pEY (Sigma Cat: P7244) substrate in the reaction buffer and supplementing that solution with […] of MnCl2 as substrate cofactor (Sigma Cat: M9522). The kinase of interest was then added to the solution at the appropriate concentration (30 nM wtERBB2 from, or 20 nM ERBB2YVMA, or 4 nM wtEGFR) and gently mixed prior to delivery of compound in 100% DMSO by acoustic dispensing (Beckman Echo550). Compound, Kinase, and substrate were allowed to incubate for 20 min at room temperature prior to the initiation of the reaction by addition of 33P-ATP (PerkinElmer Cat: NEG602, final conc 10 μM). […] IC50 determinations were made from a plot of kinase activity as a function of inhibitor concentration fit to the 4-parameter IC50 equation with the enzyme concentration held constant using GraphPad Prism (San Diego).

BaF3-HER2YVMA cells = BaF3-HER2YVMA cells (Homo sapiens, UniProt P04626, DUP772-775, cells depend on it); assay: Cell growth inhibition assay (CellTiterGlo, 3 days), BaF3-HER2YVMA; type: cell-based; conditions: BaF3_HER2YVMA cells, read-out: HER2-YVMA IC50
BaF3-HER2YVMA cells, sequence (P04626 with tags, fused parts or gaps DUP772-775): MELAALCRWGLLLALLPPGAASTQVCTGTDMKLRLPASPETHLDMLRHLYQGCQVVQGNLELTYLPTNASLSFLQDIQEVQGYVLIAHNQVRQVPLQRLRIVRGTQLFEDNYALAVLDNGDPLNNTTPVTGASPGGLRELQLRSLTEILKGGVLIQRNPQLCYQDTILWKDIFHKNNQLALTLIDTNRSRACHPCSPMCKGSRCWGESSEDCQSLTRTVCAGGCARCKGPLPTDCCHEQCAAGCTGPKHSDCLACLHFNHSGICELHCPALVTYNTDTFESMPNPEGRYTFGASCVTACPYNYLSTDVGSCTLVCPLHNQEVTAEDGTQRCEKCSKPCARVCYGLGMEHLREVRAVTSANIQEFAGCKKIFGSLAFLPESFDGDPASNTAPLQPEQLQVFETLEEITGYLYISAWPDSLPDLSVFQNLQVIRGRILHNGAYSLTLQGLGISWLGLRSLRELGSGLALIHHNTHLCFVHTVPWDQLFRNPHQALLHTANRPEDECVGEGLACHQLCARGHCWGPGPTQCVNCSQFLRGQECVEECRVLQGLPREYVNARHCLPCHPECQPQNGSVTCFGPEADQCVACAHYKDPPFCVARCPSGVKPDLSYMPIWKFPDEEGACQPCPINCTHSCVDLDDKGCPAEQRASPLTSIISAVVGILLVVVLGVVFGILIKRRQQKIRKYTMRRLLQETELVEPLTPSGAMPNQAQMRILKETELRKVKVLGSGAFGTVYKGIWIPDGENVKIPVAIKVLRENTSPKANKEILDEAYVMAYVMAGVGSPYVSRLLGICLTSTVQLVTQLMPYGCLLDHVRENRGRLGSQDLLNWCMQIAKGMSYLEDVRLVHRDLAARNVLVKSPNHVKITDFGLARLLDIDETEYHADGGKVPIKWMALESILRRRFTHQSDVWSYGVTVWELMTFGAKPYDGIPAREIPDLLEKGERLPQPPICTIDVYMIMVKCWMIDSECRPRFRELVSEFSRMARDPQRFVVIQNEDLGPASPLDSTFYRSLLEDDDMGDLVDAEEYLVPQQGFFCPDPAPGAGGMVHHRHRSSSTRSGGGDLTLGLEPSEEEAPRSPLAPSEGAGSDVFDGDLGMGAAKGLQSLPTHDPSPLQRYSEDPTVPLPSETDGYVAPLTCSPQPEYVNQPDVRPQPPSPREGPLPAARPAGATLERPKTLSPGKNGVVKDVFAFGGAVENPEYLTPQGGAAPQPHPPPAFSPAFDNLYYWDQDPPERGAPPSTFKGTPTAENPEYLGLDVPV

BaF3_EGFRWT cells = BaF3_EGFRWT cells (Homo sapiens, UniProt P00533); assay: Cell growth inhibition assay (CellTiterGlo, 3 days), BaF3_EGFRWT; type: cell-based; conditions: read-out: EGFR WT IC50
BaF3_EGFRWT cells, sequence (P00533 whole entry, change not shown): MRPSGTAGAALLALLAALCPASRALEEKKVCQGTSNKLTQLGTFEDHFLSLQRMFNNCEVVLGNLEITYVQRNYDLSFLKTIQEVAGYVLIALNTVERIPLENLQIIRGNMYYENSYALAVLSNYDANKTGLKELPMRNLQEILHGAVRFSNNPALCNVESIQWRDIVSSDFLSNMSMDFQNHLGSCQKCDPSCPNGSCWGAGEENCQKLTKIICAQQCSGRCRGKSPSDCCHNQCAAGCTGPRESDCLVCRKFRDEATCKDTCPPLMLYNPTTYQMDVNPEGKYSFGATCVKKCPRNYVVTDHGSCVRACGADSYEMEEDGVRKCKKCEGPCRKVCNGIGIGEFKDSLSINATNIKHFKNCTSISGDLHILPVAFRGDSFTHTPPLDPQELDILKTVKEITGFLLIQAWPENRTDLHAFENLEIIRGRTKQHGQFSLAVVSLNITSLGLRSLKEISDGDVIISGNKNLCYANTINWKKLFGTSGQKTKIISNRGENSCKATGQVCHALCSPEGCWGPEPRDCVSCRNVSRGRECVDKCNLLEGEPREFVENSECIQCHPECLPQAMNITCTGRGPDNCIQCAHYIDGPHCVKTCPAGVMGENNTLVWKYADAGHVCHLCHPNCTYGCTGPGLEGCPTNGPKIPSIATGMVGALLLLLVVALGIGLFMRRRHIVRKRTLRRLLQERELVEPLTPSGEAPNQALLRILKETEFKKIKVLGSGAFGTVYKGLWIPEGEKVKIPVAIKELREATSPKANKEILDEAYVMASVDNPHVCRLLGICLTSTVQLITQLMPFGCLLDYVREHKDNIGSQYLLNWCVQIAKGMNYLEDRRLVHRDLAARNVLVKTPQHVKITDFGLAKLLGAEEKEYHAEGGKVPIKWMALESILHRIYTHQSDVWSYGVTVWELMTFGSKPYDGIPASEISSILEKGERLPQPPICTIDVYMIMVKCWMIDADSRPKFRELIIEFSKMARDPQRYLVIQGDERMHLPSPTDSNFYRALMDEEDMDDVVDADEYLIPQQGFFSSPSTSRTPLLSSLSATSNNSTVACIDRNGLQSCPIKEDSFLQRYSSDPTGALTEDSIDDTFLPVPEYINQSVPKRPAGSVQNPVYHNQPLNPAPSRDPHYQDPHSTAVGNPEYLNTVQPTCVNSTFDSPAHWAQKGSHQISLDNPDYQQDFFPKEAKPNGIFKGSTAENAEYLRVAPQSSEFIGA

BaF3_HER2WT cells = BaF3_HER2WT cells (Homo sapiens, UniProt P04626); assay: Cell growth inhibition assay (CellTiterGlo, 3 days), BaF3_HER2WT; type: cell-based; conditions: read-out: HER2 WT IC50
BaF3_HER2WT cells, sequence (P04626 whole entry, change not shown): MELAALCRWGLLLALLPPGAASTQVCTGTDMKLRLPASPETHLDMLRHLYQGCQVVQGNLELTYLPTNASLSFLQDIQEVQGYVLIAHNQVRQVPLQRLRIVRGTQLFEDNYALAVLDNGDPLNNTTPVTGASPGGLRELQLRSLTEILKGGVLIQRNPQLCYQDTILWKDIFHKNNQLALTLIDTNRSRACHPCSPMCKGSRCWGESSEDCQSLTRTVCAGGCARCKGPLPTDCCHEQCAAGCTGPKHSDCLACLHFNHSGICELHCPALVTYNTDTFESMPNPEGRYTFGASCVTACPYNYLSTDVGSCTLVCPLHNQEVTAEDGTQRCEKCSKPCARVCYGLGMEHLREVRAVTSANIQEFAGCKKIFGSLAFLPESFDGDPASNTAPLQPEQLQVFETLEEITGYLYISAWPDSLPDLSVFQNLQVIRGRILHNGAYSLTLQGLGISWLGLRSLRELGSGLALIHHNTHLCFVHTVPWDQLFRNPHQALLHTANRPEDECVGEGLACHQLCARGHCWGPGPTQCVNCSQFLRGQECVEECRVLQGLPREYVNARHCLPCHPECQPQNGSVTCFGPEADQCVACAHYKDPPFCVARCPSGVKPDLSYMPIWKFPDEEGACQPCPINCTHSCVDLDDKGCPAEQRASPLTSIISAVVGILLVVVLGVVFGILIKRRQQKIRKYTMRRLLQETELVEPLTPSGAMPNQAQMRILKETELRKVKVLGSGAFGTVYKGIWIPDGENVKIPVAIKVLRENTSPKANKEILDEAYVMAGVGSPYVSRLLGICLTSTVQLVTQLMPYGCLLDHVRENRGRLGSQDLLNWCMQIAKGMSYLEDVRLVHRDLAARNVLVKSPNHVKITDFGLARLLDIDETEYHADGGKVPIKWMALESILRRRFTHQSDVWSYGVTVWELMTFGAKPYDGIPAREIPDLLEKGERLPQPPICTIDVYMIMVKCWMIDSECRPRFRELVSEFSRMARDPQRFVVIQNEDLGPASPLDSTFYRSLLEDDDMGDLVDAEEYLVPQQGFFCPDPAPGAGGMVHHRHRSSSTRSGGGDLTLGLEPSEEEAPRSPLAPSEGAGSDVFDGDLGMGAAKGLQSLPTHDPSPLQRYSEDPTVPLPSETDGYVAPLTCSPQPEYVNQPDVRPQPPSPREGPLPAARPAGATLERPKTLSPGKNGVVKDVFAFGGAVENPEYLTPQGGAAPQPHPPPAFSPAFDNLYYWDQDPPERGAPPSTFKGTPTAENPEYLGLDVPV

T1 sequence (P04626 with tags, fused parts or gaps INS775YVMA limits assumed): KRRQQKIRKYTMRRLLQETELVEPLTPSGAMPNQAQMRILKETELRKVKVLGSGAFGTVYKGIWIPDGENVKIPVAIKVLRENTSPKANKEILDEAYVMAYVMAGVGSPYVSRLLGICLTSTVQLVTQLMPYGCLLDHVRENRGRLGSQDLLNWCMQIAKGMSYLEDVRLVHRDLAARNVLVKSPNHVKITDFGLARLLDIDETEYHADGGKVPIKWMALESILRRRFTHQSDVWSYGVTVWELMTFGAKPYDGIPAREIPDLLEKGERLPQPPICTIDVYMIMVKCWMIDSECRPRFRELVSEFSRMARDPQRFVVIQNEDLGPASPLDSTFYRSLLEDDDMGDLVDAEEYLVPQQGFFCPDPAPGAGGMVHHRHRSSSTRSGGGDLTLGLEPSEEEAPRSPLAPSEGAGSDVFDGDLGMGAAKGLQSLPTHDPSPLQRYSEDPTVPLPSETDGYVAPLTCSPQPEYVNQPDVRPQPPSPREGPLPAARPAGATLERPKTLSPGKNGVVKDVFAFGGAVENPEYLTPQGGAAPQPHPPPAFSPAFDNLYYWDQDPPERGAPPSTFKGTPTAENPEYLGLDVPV

IC50 [1] [µM] | GI50 (BaF3-HER2YVMA cells) [µM] | GI50 (BaF3_EGFRWT cells) [µM] | GI50 (BaF3_HER2WT cells) [µM] | Structure (SMILES)
< 0.2 | – | – | – | Cc1cc(Nc2ncnn3ccc([C@H]4CCN(C(=O)/C=C/CN(C)C)C4)c23)ccc1Oc1ccn2ncnc2c1 (single isomer, unassigned) [Example 100]
< 0.2 | – | – | – | Cc1cc(Nc2ncnn3ccc([C@H]4CCCN(C(=O)/C=C/CN(C)C)C4)c23)ccc1Oc1ccn2ncnc2c1 (single isomer, unassigned) [Example 108]
< 0.2 | – | – | – | Cc1cc(Nc2ncnn3ccc([C@H]4CCCN(C(=O)/C=C/CN(C)C)CC4)c23)ccc1Oc1ccn2ncnc2c1 (single isomer, unassigned) [Example 110]
– | < 0.2 | 1.5 to 5 | < 0.2 | Cc1cc(Nc2ncnn3ccc(C4CCN(C(=O)[C@@H](F)Cl)CC4)c23)ccc1Oc1ccn2ncnc2c1 (single isomer, unassigned) [second eluting isomer of Examples 173 and 174]
– | – | – | < 0.2 | Cc1cc(Nc2ncnn3ccc(C4CC5CCC4CN5C(=O)/C=C/CN(C)C)c23)ccc1Oc1ccn2ncnc2c1 (single isomer, unassigned; first eluting) [first eluting isomer of Examples 137 and 138]
– | < 0.2 | 1.5 to 5 | < 0.2 | C=C(CN(C)C)C(=O)N1C2C=C(c3ccn4ncnc(Nc5ccc(Oc6ccn7ncnc7c6)c(C)c5)c34)CC1CC2 (stereo not shown) [Example 30, 1-(3-(4-((4-([1,2,4]triazolo[1,5-a]pyridin-7-yloxy)-3-methylphenyl)amino)pyrrolo[2,1-f][1,2,4]triazin-5-yl)-8-azabicyclo[3.2.1]oct-2-en-8-yl)-2-((dimethylamino)methyl) prop-2-en-1-one acetate]
